Tests used:
MMTV/Neu mice tumors = experiment: Spontaneous cancer development model; type: in vivo
Procedure: The survival rate was recorded over up to 100 days. When the size of tumor was over 2,500 mm^3, the animal was euthanized (FIG. 20C).
Specifically, fluorescence immunohistochemical analysis was performed using anti-CD8 antibodies in the cancer tissues after the end of the experiment.
Accordingly, the present inventors investigated whether the combination of the drugs can increase the anti-cancer immunity even in the spontaneous cancer development model. […] After completion of the experiment, the present inventors isolated the spleen cells and treated with peptide against rat-Neu, an antigen expressed in the cancer of the spontaneous cancer development model, and after 48 hours, the culture supernatant was collected and IFN-γ was quantified using an ELISA kit (R&D Systems, Inc, USA).

B16F10-Ova cells = experiment: B16F10-Ova tumor model; type: in vivo, C57L/B6 wild-type mice; details: 10 mg/kg intravenous
Procedure: CT26.CL25 cancer cells (1×10^6) expressing β-galactosidase were subcutaneously injected into the left back of a Balb/c wild type mice to generate a tumor model Similarly, an […] tumor model was prepared by subcutaneously injecting melanoma cell line B16F10-Ova cells (5×10^5) into the left back of C57L/B6 wild-type mice to induce cancer.
In the case of the CT26.CL25 cancer cell line, 6 days after the injection of the cancer cells, and in the case of B 16F10-Ova, 9 days after the injection of the cancer cells, Y27632 was administered by intravenous injection at a dose of 10 mg/kg as indicated in FIG. 8a. In the case of the CT26.CL25 model, the mice were sacrificed on the 22nd day after the injection of the cancer cells and in the case of the B16F10-Ova cancer model, the mice were sacrificed on the 20th day after the injection of the cancer cells (FIG. 8A). As a negative control, phosphate-buffered saline was administered instead of Y27632.
The tumor tissues of the mice were excised, an ex vivo image was taken and the tumor tissue were weighed (FIG. 8B). In addition, before the mice were sacrificed, changes in body weights were measured at intervals of 3 days from the 6th day of the cancer cell injection in the CT26.CL25 cancer model and at intervals of 3 days from the 9th day in the B16F10-Ova cancer model (FIG. 8c). Length (L) and width (W) of the tumor tissues were measured, and the volume of the tumor tissues over time was calculated using the following formula (FIGS. 8D and 8E):
The volume of tumor tissue (V[mm^3])=(L[mm])[…] (W[mm])^2×0.5.

[1] = tested on: bone marrow-derived dendritic cells (BMDC); experiment: Cross presentation of H-2Kb-Ova by BMDCs in vitro; type: cell-based, mice; details: Y27632 30 μM, 1 hour on BMDCs; cancer cells doxorubicin treated or untreated
Procedure: Furthermore, the inventors investigated whether the cross presentation of dendritic cells was promoted by the combination treatment of doxorubicin and Y27632. To this end, the present inventors used 30 μM of Y27632 to pretreat bone marrow-derived dendritic cells (BMDC) stained with CellTracker CMFDA (Thermo Fisher Scientific, USA) for 1 hour, followed by treatment with doxorubicin treated B16F10-Ova cells or doxorubicin untreated B16F10-Ova cells. After the co-culture, floating cancer cells were removed by withdrawing supernatant. Cross presentation activity, which is one of functions of dendritic cells, was analyzed via flow cytometry analysis using an antibody capable of detect a cancer antigen (H-2K^b-Ova) capable of activating T cells, through flow cytometry analysis using an antibody (H-2K^b monoclonal antibody, Invitrogen, USA).

C[C@@H](N)[C@H]1CC[C@H](C(=O)Nc2ccncc2)CC1 [Y27632]
anti-cancer immunity (IFN-γ of spleen cells treated with rat-Neu peptide) (MMTV/Neu mice tumors; 48 hours): increased | CD8+ T cells in tumor tissues (infiltration) (MMTV/Neu mice tumors; anti-CD8 fluorescence immunohistochemistry): some T cell infiltration | body weight of the mice (B16F10-Ova cells): no significant change | volume of the tumors (B16F10-Ova cells): significantly decreased | weight of the tumors (B16F10-Ova cells; day 20): significantly decreased | cross presentation (H-2Kb-Ova) of BMDCs co-cultured with B16F10-Ova cells [1]: increased the cross-presentation
